According to patent publication US11466020B2, “Compounds and compositions for inhibition and elimination of Zika infection and uses for same” (Cornell University, priority 2017, dated 2022):
Structures can show the parent of a compound that is named as a salt.

Columns and labels:
ZIKV (FSS13025 strain) [1] = test: qRT-PCR of total and (-) strand vRNA in hNPCs treated 48 h post-infection (FSS13025); format: cell-based, Zika virus; details: treatment at 48 h post-infection, 25 μM, additional 3 days
Experimental: (A and B) Inhibitory curve and IC50 of AQ were calculated based on the infection rate (A) and normalized cell viability (B) (n=6). (C and D) Immunocytochemistry analysis (C) and quantification of infection rate and total cell number (D) of hNPCs after ZIKV infection treated with 15 μM AQ or DMSO or mock infection (n=3). Cells were fixed and stained for ZIKV E and with DAPI. Scale bars, 100 μm. p values were calculated by unpaired two-tailed Student's t-test. *p<0.05, and ***p<0.001. (E) qRT-PCR analysis of total and replicating (−) strand of ZIKV (MR 766 strain) vRNA level in hNPCs from two additional donors. hNPCs from different donors were treated with 25 μM HH at 24 h post-infection. (F) The expression dynamics of ZIKV vRNA (FSS13025 strain) in hNPCs. qRT-PCR analysis to quantify the total and replicating (−) strand ZIKV vRNA levels in hNPCs at different time points post-infection. […] (G) qRT-PCR analysis of hNPCs that were treated with 25 μM HH or DMSO at 48 h post-ZIKV (FSS13025 strain) infection and maintained for additional 3 days. p values were calculated by unpaired two-tailed Student's t-test. *p<0.05, **p<0.01 and ***p<0.001, unless otherwise stated. […]
RNA Extraction and qRT-PCR. […] ZIKV vRNA levels were calculated using a standard curve generated using serial 10-fold dilutions of ZIKV vRNA.

[2] = tested on: human forebrain organoids; test: Forebrain organoid proliferation, apoptosis, size and structure after ZIKV infection; format: cell-based
Description: Scale bars, 100 μm. […] Scale bars, 100 μm. […] Scale bars, 50 μm.
Medium was changed every other day.

ZIKV (FSS13025 strain) [3] = test: qRT-PCR of vRNA in human forebrain organoids treated 42 h or 48 h post-infection (FSS13025); format: cell-based, Zika virus; details: HH added at 42 h or 48 h post-infection, additional 3 days
Experimental: Immunocytochemical analysis of D20+4 ZIKV-infected organoids treated with 15 μM AQ or DMSO or with mock infection (n=3). D20+4 organoids were stained for SOX2, ZIKV E and with DAPI to monitor the ZIKV infection rate. D20+4 organoids were also stained for Ki67, CAS3 and with DAPI to monitor the cell proliferation and apoptosis rate. […] Scale bars, 100 μm. (B) The expression dynamics of ZIKV vRNA (FSS13025 strain) in human forebrain organoids. qRT-PCR analysis to quantify the total and replicating (−) strand vRNA levels in the human forebrain organoids at different time points post-infection. […] (C) qRT-PCR analysis of human forebrain organoids that were treated with 25 μM HH or DMSO at 42 h or 48 h post-ZIKV (FSS13025 strain) infection and maintained for additional 3 days. p values were calculated by unpaired two-tailed Student's t-test. *p<0.05, **p<0.01 and ***p<0.001, if not mentioned specifically.
To further validate the effect of HH on ZIKV-infected brain organoids, we first monitored ZIKV vRNA expression dynamics in organoids using qRT-PCR analysis.
RNA Extraction and qRT-PCR. Total RNA of cultured cells and organs was extracted with RNeasy plus mini kit (Qiagen). vRNA from cell culture supernatant or mouse serum was extracted with QIAampe viral RNA mini kit (Qiagen). […] ZIKV vRNA levels were calculated using a standard curve generated using serial 10-fold dilutions of ZIKV vRNA.

ZIKV MR766 virus strain = test: Prophylactic treatment of ZIKV infected SCID-Beige mice; format: in vivo; details: AQ-treated ZIKV infected mice

CN1CCC2=C[C@H](O)[C@H]3OC(=O)c4cc5c(cc4[C@H]3[C@@H]21)OCO5 [HH, hippeastrine hydrobromide]
total and replicating (-) strand ZIKV vRNAs in hNPCs (FSS13025) (ZIKV (FSS13025 strain) [1]): completely suppressed | ZIKV-associated proliferation (Ki67+) and apoptosis (CAS3+) defects in D20 organoids ([2]; 25 μM HH for 3 days): completely rescued | ZIKV-induced structural defects in long-term organoid cultures ([2]; 25 μM HH, D20+18): successfully rescued | cross-sectional area of ZIKV infected organoids at D20+18 ([2]; 25 μM HH, mock 1.6, ZIKV 0.4): 1.4 mm^2 | neurotoxicity in forebrain organoids ([2]; HH compared with AQ): did not exhibit similar neurotoxicity as AQ | total and replicating (-) ZIKV vRNA levels in forebrain organoids (ZIKV (FSS13025 strain) [3]): significantly decreased

CCN(CC)Cc1cc(Nc2ccnc3cc(Cl)ccc23)ccc1O [AQ, amodiaquine dihydrochloride dihydrate]
ZIKV infection of adult cortex (immunohistochemistry) (ZIKV MR766 virus strain): suppresses infection in adult cortex | ZIKV infection of adult hippocampus (immunohistochemistry) (ZIKV MR766 virus strain): suppresses infection in adult hippocampus | ZIKV infection of adult striatum (immunohistochemistry) (ZIKV MR766 virus strain): suppresses infection in adult striatum
